Reference: ChEMBL document CHEMBL1201861, “Genomics of Drug Sensitity in Cancer screening data, Wellcome Trust Sanger Institute”

Tests used:
Test in all cases: cells
EC-GI-10 = assay type: functional, cell-based, Homo sapiens; details: Homo sapiens, EC-GI-10
Description: SANGER: Inhibition of human EC-GI-10 cell growth in a cell viability assay.

KLE = assay type: functional, cell-based, Homo sapiens; details: Homo sapiens, KLE;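 note: growth inhibition of human KLE cells, read out with a cell viability assay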
Description: SANGER: Inhibition of human KLE cell growth in a cell viability assay.

A3-KAW = assay type: functional, cell-based, Homo sapiens; details: Homo sapiens, A3-KAW;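 note: growth inhibition of human A3-KAW cells, read out with a cell viability assay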
Description: SANGER: Inhibition of human A3-KAW cell growth in a cell viability assay.

SK-LMS-1 = assay type: functional, cell-based, Homo sapiens; details: Homo sapiens, SK-LMS-1;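 note: growth inhibition of human SK-LMS-1 cells, read out with a cell viability assay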
Description: SANGER: Inhibition of human SK-LMS-1 cell growth in a cell viability assay.

HCC2218 = assay type: functional, cell-based, Homo sapiens; details: Homo sapiens, HCC2218;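 note: cell viability assay read-out, with IC50 given as the concentration that inhibits growth of the cell line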
Description: SANGER: Inhibition of human HCC2218 cell growth in a cell viability assay.

LB373-MEL-D = assay type: functional, cell-based, Homo sapiens; details: Homo sapiens, LB373-MEL-D;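 note: growth inhibition of the cell line, read out in a cell viability assay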
Description: SANGER: Inhibition of human LB373-MEL-D cell growth in a cell viability assay.

J-RT3-T3-5 = assay type: functional, cell-based, Homo sapiens; details: Homo sapiens, J-RT3-T3-5;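 note: cell viability assay measuring growth inhibition of human J-RT3-T3-5 cells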
Description: SANGER: Inhibition of human J-RT3-T3-5 cell growth in a cell viability assay.

MFM-223 = assay type: functional, cell-based, Homo sapiens; details: Homo sapiens, MFM-223
Description: SANGER: Inhibition of human MFM-223 cell growth in a cell viability assay.

KNS-81-FD = assay type: functional, cell-based, Homo sapiens; details: Homo sapiens, KNS-81-FD;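 note: growth inhibition of KNS-81-FD cells, read out with a cell viability assay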
Description: SANGER: Inhibition of human KNS-81-FD cell growth in a cell viability assay.

LB771-HNC = assay type: functional, cell-based, Homo sapiens; details: Homo sapiens, LB771-HNC;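 note: growth inhibition of LB771-HNC human cells, read out with a cell viability assay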
Description: SANGER: Inhibition of human LB771-HNC cell growth in a cell viability assay.

NCI-H720 = assay type: functional, cell-based, Homo sapiens; details: Homo sapiens, NCI-H720;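 note: growth inhibition of human NCI-H720 cells determined by a cell viability assay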
Description: SANGER: Inhibition of human NCI-H720 cell growth in a cell viability assay.

SJSA-1 = assay type: functional, cell-based, Homo sapiens; details: Homo sapiens, SJSA-1;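 note: growth inhibition of human SJSA-1 cells, read out through a cell viability measurement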
Description: SANGER: Inhibition of human SJSA-1 cell growth in a cell viability assay.

KNS-42 = assay type: functional, cell-based, Homo sapiens; details: Homo sapiens, KNS-42;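 note: growth inhibition of KNS-42 cells, read out with a cell viability assay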
Description: SANGER: Inhibition of human KNS-42 cell growth in a cell viability assay.

HEL = assay type: functional, cell-based, Homo sapiens; details: Homo sapiens, HEL;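 note: growth inhibition of HEL cells, read out with a cell viability assay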
Description: SANGER: Inhibition of human HEL cell growth in a cell viability assay.

HAL-01 = assay type: functional, cell-based, Homo sapiens; details: Homo sapiens, HAL-01;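 note: growth inhibition of human HAL-01 cells, read out with a cell viability assay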
Description: SANGER: Inhibition of human HAL-01 cell growth in a cell viability assay.

ES4 = assay type: functional, cell-based, Homo sapiens; details: Homo sapiens, ES4;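 note: growth inhibition of human ES4 cells, read out by a cell viability assay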
Description: SANGER: Inhibition of human ES4 cell growth in a cell viability assay.

TE-11 = assay type: functional, cell-based, Homo sapiens; details: Homo sapiens, TE-11;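 note: growth inhibition of human TE-11 cells, read out by a cell viability assay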
Description: SANGER: Inhibition of human TE-11 cell growth in a cell viability assay.

LU-139 = assay type: functional, cell-based, Homo sapiens; details: Homo sapiens, LU-139
Description: SANGER: Inhibition of human LU-139 cell growth in a cell viability assay.

SNU1 = assay type: functional, cell-based, Homo sapiens; details: Homo sapiens, SNU1;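 note: growth inhibition of human NCI-SNU-1 cells, measured with a cell viability assay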
Description: SANGER: Inhibition of human NCI-SNU-1 cell growth in a cell viability assay.

CAS-1 = assay type: functional, cell-based, Homo sapiens; details: Homo sapiens, CAS-1;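 note: growth inhibition of CAS-1 cells, measured with a cell viability assay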
Description: SANGER: Inhibition of human CAS-1 cell growth in a cell viability assay.

ES5 = assay type: functional, cell-based, Homo sapiens; details: Homo sapiens, ES5;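 note: growth inhibition of human ES5 cells, read out by a cell viability assay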
Description: SANGER: Inhibition of human ES5 cell growth in a cell viability assay.

KS-1 = assay type: functional, cell-based, Homo sapiens; details: Homo sapiens, KS-1;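 note: growth inhibition of KS-1 cells, read out with a cell viability assay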
Description: SANGER: Inhibition of human KS-1 cell growth in a cell viability assay.

ES6 = assay type: functional, cell-based, Homo sapiens; details: Homo sapiens, ES6;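 note: growth inhibition of human ES6 cells, read out with a cell viability assay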
Description: SANGER: Inhibition of human ES6 cell growth in a cell viability assay.

HC-1 = assay type: functional, cell-based, Homo sapiens; details: Homo sapiens, HC-1;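 note: growth inhibition of HC-1 cells measured by a cell viability assay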
Description: SANGER: Inhibition of human HC-1 cell growth in a cell viability assay.

NOS-1 = assay type: functional, cell-based, Homo sapiens; details: Homo sapiens, NOS-1;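 note: growth inhibition of the human NOS-1 cell line, read out with a cell viability assay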
Description: SANGER: Inhibition of human NOS-1 cell growth in a cell viability assay.

KM12 = assay type: functional, cell-based, Homo sapiens; details: Homo sapiens, KM12;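 note: KM12 cell growth inhibition, read out with a cell viability assay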
Description: SANGER: Inhibition of human KM12 cell growth in a cell viability assay.

TK-10 = assay type: functional, cell-based, Homo sapiens; details: Homo sapiens, TK-10;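 note: growth inhibition of TK-10 cells, read out in a cell viability assay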
Description: SANGER: Inhibition of human TK10 cell growth in a cell viability assay.

KY821 = assay type: functional, cell-based, Homo sapiens; details: Homo sapiens, KY821;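 note: growth inhibition of human KY821 cells, read out by a cell viability assay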
Description: SANGER: Inhibition of human KY821 cell growth in a cell viability assay.

NCI-H69 = assay type: functional, cell-based, Homo sapiens; details: Homo sapiens, NCI-H69;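 note: growth inhibition of the cell line, read out with a cell viability assay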
Description: SANGER: Inhibition of human NCI-H69 cell growth in a cell viability assay.

ES3 = assay type: functional, cell-based, Homo sapiens; details: Homo sapiens, ES3;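 note: growth inhibition of ES3 cells, read out with a cell viability assay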
Description: SANGER: Inhibition of human ES3 cell growth in a cell viability assay.

MV4-11 = assay type: functional, cell-based, Homo sapiens, MV-4-11; details: Homo sapiens, MV4-11;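 note: cell viability readout measuring growth inhibition of human MV-4-11 cells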
Description: SANGER: Inhibition of human MV-4-11 cell growth in a cell viability assay.

HD-MY-Z = assay type: functional, cell-based, Homo sapiens; details: Homo sapiens, HD-MY-Z;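 note: growth inhibition of HD-MY-Z cells, read out with a cell viability assay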
Description: SANGER: Inhibition of human HD-MY-Z cell growth in a cell viability assay.

DSH1 = assay type: functional, cell-based, Homo sapiens; details: Homo sapiens, DSH1;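 note: growth inhibition of human DSH1 cells, measured with a cell viability readout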
Description: SANGER: Inhibition of human DSH1 cell growth in a cell viability assay.

COLO-800 = assay type: functional, cell-based, Homo sapiens; details: Homo sapiens, COLO-800;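 note: growth inhibition of COLO-800 cells, read out with a cell viability assay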
Description: SANGER: Inhibition of human COLO-800 cell growth in a cell viability assay.

NTERA-2-cl-D1 = assay type: functional, cell-based, Homo sapiens; details: Homo sapiens, NTERA-2-cl-D1;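 note: inhibition of cell growth, measured with a cell viability assay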
Description: SANGER: Inhibition of human NTERA-S-cl-D1 cell growth in a cell viability assay.

LS-1034 = assay type: functional, cell-based, Homo sapiens; details: Homo sapiens, LS-1034
Description: SANGER: Inhibition of human LS-1034 cell growth in a cell viability assay.

EKVX = assay type: functional, cell-based, Homo sapiens; details: Homo sapiens, EKVX;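 note: growth inhibition of human EKVX cells, read out with a cell viability assay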
Description: SANGER: Inhibition of human EKVX cell growth in a cell viability assay.

ATN-1 = assay type: functional, cell-based, Homo sapiens; details: Homo sapiens, ATN-1;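 note: growth inhibition of human ATN-1 cells, read out with a cell viability assay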
Description: SANGER: Inhibition of human ATN-1 cell growth in a cell viability assay.

TE-10 = assay type: functional, cell-based, Homo sapiens; details: Homo sapiens, TE-10;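 note: growth inhibition of TE-10 cells, measured by a cell viability assay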
Description: SANGER: Inhibition of human TE-10 cell growth in a cell viability assay.

SW684 = assay type: functional, cell-based, Homo sapiens; details: Homo sapiens, SW684;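 note: growth inhibition of human SW684 cells, measured by a cell viability assay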
Description: SANGER: Inhibition of human SW684 cell growth in a cell viability assay.

SK-NEP-1 = assay type: functional, cell-based, Homo sapiens; details: Homo sapiens, SK-NEP-1;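 note: growth inhibition of human SK-NEP-1 cells, read out by a cell viability assay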
Description: SANGER: Inhibition of human SK-NEP-1 cell growth in a cell viability assay.

CTV-1 = assay type: functional, cell-based, Homo sapiens; details: Homo sapiens, CTV-1;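 note: growth inhibition of the cell line, read out with a cell viability assay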
Description: SANGER: Inhibition of human CTV-1 cell growth in a cell viability assay.

NCI-H1838 = assay type: functional, cell-based, Homo sapiens; details: Homo sapiens, NCI-H1838;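 note: growth inhibition of NCI-H1838 cells, determined with a cell viability readout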
Description: SANGER: Inhibition of human NCI-H1838 cell growth in a cell viability assay.

COLO-684 = assay type: functional, cell-based, Homo sapiens; details: Homo sapiens, COLO-684
Description: SANGER: Inhibition of human COLO-684 cell growth in a cell viability assay.

D283 Med = assay type: functional, cell-based, Homo sapiens; details: Homo sapiens, D283 Med
Description: SANGER: Inhibition of human D-283MED cell growth in a cell viability assay.

NCI-H226 = assay type: functional, cell-based, Homo sapiens; details: Homo sapiens, NCI-H226;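 note: cell viability read-out used to gauge growth inhibition of the cells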
Description: SANGER: Inhibition of human NCI-H226 cell growth in a cell viability assay.

EOL1 = assay type: functional, cell-based, Homo sapiens; details: Homo sapiens, EOL1;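 note: growth inhibition of EoL-1 cells, read out by a cell viability assay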
Description: SANGER: Inhibition of human EoL-1-cell cell growth in a cell viability assay.

LS-411N = assay type: functional, cell-based, Homo sapiens; details: Homo sapiens, LS-411N
MOLT-16 = assay type: functional, cell-based, Homo sapiens; details: Homo sapiens, MOLT-16;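 note: growth inhibition of human MOLT-16 cells, read out with a cell viability assay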
Description: SANGER: Inhibition of human MOLT-16 cell growth in a cell viability assay.

CC(=O)O[C@H]1C(=O)[C@@]2(C)[C@H]([C@H](OC(=O)c3ccccc3)[C@]3(O)C[C@H](OC(=O)[C@H](O)[C@@H](NC(=O)c4ccccc4)c4ccccc4)C(C)=C1C3(C)C)[C@]1(OC(C)=O)CO[C@@H]1C[C@@H]2O [PACLITAXEL]
IC50 (EC-GI-10): 72.6 nM
IC50 (KLE): > 0.102 µM
IC50 (A3-KAW): 73.5 nM
IC50 (SK-LMS-1): 0.00401 µM
IC50 (HCC2218): > 0.102 µM
IC50 (LB373-MEL-D): 41.1 nM
IC50 (J-RT3-T3-5): 23.8 nM
IC50 (MFM-223): > 0.102 µM
IC50 (KNS-81-FD): > 0.102 µM
IC50 (LB771-HNC): 25.3 nM
IC50 (NCI-H720): > 0.102 µM
IC50 (SJSA-1): 17.7 nM
IC50 (KNS-42): 8.91 nM
IC50 (HEL): 41.4 nM
IC50 (HAL-01): > 102 nM
IC50 (ES4): 4.49 nM
IC50 (TE-11): 1.23 nM
IC50 (LU-139): 59.9 nM
IC50 (SNU1): > 0.102 µM
IC50 (CAS-1): > 0.102 µM
IC50 (ES5): > 0.102 µM
IC50 (KS-1): 5.82 nM
IC50 (ES6): 95.9 nM
IC50 (HC-1): 7.21 nM
IC50 (NOS-1): 6.5 nM
IC50 (KM12): 6.37 nM
IC50 (TK-10): 33.6 nM
IC50 (KY821): 27 nM
IC50 (NCI-H69): 0.0178 µM
IC50 (ES3): > 0.102 µM
IC50 (MV4-11): 4.75 nM
IC50 (HD-MY-Z): 11.6 nM
IC50 (DSH1): > 0.102 µM
IC50 (COLO-800): > 0.102 µM
IC50 (NTERA-2-cl-D1): 2.09 nM
IC50 (LS-1034): 80.4 nM
IC50 (EKVX): > 0.102 µM
IC50 (ATN-1): 6.09 nM
IC50 (TE-10): 1.54 nM
IC50 (SW684): > 0.102 µM
IC50 (SK-NEP-1): 86.4 nM
IC50 (CTV-1): 14.8 nM
IC50 (NCI-H1838): > 0.102 µM
IC50 (COLO-684): 29.1 nM
IC50 (D283 Med): > 0.102 µM
IC50 (NCI-H226): > 0.102 µM
IC50 (EOL1): 26.9 nM
IC50 (LS-411N): 7.17 nM
IC50 (MOLT-16): 21.5 nM

N[C@@H](CSC(c1ccccc1)(c1ccccc1)c1ccccc1)C(=O)O [S-TRITYL-L-CYSTEINE]
IC50 (EC-GI-10): > 5120 nM
IC50 (KLE): > 5.12 µM
IC50 (A3-KAW): 835 nM
IC50 (SK-LMS-1): > 5.12 µM
IC50 (HCC2218): > 5.12 µM
IC50 (LB373-MEL-D): 2840 nM
IC50 (J-RT3-T3-5): 970 nM
IC50 (MFM-223): > 5.12 µM
IC50 (KNS-81-FD): > 5.12 µM
IC50 (LB771-HNC): 1950 nM
IC50 (NCI-H720): > 5.12 µM
IC50 (SJSA-1): 750 nM
IC50 (KNS-42): 2580 nM
IC50 (HEL): 2750 nM
IC50 (HAL-01): 2420 nM
IC50 (ES4): > 5120 nM
IC50 (TE-11): 451 nM
IC50 (LU-139): 2910 nM
IC50 (SNU1): > 5.12 µM
IC50 (CAS-1): > 5.12 µM
IC50 (ES5): > 5.12 µM
IC50 (KS-1): 842 nM
IC50 (ES6): > 5120 nM
IC50 (HC-1): 1050 nM
IC50 (NOS-1): 970 nM
IC50 (KM12): 4670 nM
IC50 (TK-10): > 5120 nM
IC50 (KY821): 1780 nM
IC50 (NCI-H69): 3.19 µM
IC50 (ES3): > 5.12 µM
IC50 (MV4-11): 381 nM
IC50 (HD-MY-Z): 2240 nM
IC50 (DSH1): > 5.12 µM
IC50 (COLO-800): > 5.12 µM
IC50 (NTERA-2-cl-D1): > 5120 nM
IC50 (LS-1034): 2780 nM
IC50 (EKVX): > 5.12 µM
IC50 (ATN-1): 859 nM
IC50 (TE-10): 730 nM
IC50 (SW684): > 5.12 µM
IC50 (SK-NEP-1): 1860 nM
IC50 (CTV-1): 788 nM
IC50 (NCI-H1838): > 5.12 µM
IC50 (COLO-684): 2080 nM
IC50 (D283 Med): > 5.12 µM
IC50 (NCI-H226): > 5.12 µM
IC50 (EOL1): 1190 nM
IC50 (LS-411N): 1520 nM
IC50 (MOLT-16): 1890 nM

CCN(CC)CCNC(=O)c1c(C)[nH]c(/C=C2\C(=O)Nc3ccc(F)cc32)c1C [SUNITINIB]
IC50 (EC-GI-10): > 8000 nM
IC50 (KLE): > 8 µM
IC50 (A3-KAW): 1630 nM
IC50 (SK-LMS-1): 3.83 µM
IC50 (HCC2218): > 8 µM
IC50 (LB373-MEL-D): > 8000 nM
IC50 (J-RT3-T3-5): 6080 nM
IC50 (MFM-223): > 8 µM
IC50 (KNS-81-FD): > 8 µM
IC50 (LB771-HNC): > 8000 nM
IC50 (NCI-H720): > 8 µM
IC50 (SJSA-1): 7660 nM
IC50 (KNS-42): > 8000 nM
IC50 (HEL): 3480 nM
IC50 (HAL-01): 2060 nM
IC50 (ES4): 2810 nM
IC50 (TE-11): 1840 nM
IC50 (LU-139): > 8000 nM
IC50 (SNU1): > 8 µM
IC50 (CAS-1): > 8 µM
IC50 (ES5): > 8 µM
IC50 (KS-1): 1690 nM
IC50 (ES6): 981 nM
IC50 (HC-1): 5430 nM
IC50 (NOS-1): 15.3 nM
IC50 (KM12): 350 nM
IC50 (TK-10): > 8000 nM
IC50 (KY821): 2800 nM
IC50 (NCI-H69): > 8 µM
IC50 (ES3): > 8 µM
IC50 (MV4-11): < 31.2 nM
IC50 (HD-MY-Z): 5170 nM
IC50 (DSH1): > 8 µM
IC50 (COLO-800): > 8 µM
IC50 (NTERA-2-cl-D1): > 8000 nM
IC50 (LS-1034): > 8000 nM
IC50 (EKVX): > 8 µM
IC50 (ATN-1): 3670 nM
IC50 (TE-10): 2340 nM
IC50 (SW684): > 8 µM
IC50 (SK-NEP-1): 2600 nM
IC50 (CTV-1): 1730 nM
IC50 (NCI-H1838): > 8 µM
IC50 (COLO-684): > 8000 nM
IC50 (D283 Med): > 8 µM
IC50 (NCI-H226): > 8 µM
IC50 (EOL1): < 31.2 nM
IC50 (LS-411N): > 8000 nM
IC50 (MOLT-16): 631 nM
